Columns and labels:
liver mitochondria = conditions: cited from earlier work
[1] = test system: mouse middle cerebral artery occlusion (MCAO)/reperfusion; test: Middle cerebral artery occlusion (MCAO)/reperfusion, promethazine study; assay type: in vivo
Experimental: Middle cerebral artery occlusion/reperfusion studies were conducted as previously described. […] All animal experiments were conducted in accordance with National Institutes of Health and institutional guidelines. Male C57/B6 (Charles River Laboratories) mice weighing 18-29 g were housed in standard temperature (22±1° C.) and light-controlled (light on 07:00-21:00) environment with ad libitum access to food and water. Weight of animals undergoing stroke were restricted to less than 22 g. Animals undergoing stroke were randomized to two groups: untreated OP injection with 0.9% saline) and treated (IP injection with promethazine solution). Weight of animals undergoing sham operations was liberalized to 18-29 g. Surgery and Occlusion: Immediately before surgery, each mouse was anesthetized with 2% isoflurane (70% N2O/30% O2). During surgery, isoflurane was lowered to 1%. A midline incision was made in the neck and the right common carotid artery was dissected. The right MCA was occluded with a 7-0 nylon filament after permanent ligation of the external carotid artery and temporary ligation of the common carotid artery. […] Right MCA occlusion was defined as greater than or equal to a 90% drop of peak velocity measured by the laser Doppler flowmetry drop. […] The occluding filament was removed after 120 minutes. Sham operations consisted of the same duration and concentration of anesthesia, midline incision, doppler probe insertion over right temporal bone, and dissection of common carotid artery but no manipulation of the common carotid artery or external carotid artery. The surgeon was bided to treatment group. All mice were sacrificed at 24 hrs post perfusion. Experiments were in accordance with protocols approved by the Harvard Medical School Animal Care Committee. Drug Treatment: Both treated and control groups received two IP injections: the first one delivered 1 hr prior to ischemia and the second delivered 12 hrs later. Each i.p. dose was 10 mg/kg (in 0.5 ml) of promethazine dissolved in 0.9% NaCl or an equal volume of buffer alone. […] Determination of Infarct Volume: After 24 hrs of reperfusion, the mice were sacrificed. The brains were quickly removed and chilled for 2 minutes. The cerebellum was removed, Coronal sections (2 mm thick; n=6) were cut in a craniotome. […] After staining, each slice was scanned by an HP scanjet 4200 C, The unstained areas in each hemisphere were quantified and the ischemic area per slice=left (normal side)-right (ischemic side). […] The infarct volume was calculated by summing up the infracted areas in the 6 slices and calculating the volume for a cylinder (area×height). […] The examiner was blinded to treatment group.

phospholipase A2 = assay type: biochemical
[2] = test system: MPTP-induced dopamine depletion and dopaminergic neuron loss; test: MPTP experimental animal model for Parkinson's Disease; assay type: in vivo
Source text: 1-Methyl-4-phenyl-1,2,3,6-tetrahydropyridine (MPTP) has been employed as an experimental animal model for Parkinson's Disease. As evidenced by FIG. 9, promethazine appeared to have no effect on striatal dopamine levels at base line.

[3] = test system: primary cerebrocortical neurons; test: Oxygen-glucose deprivation (OGD) of cultured primary cerebrocortical neurons; assay type: cell-based, mouse; conditions: for OGD-mediated neuronal death (LDH release): promethazine 0.1 μM (p=0.05) and 0.5 μM (p<0.001)
Experimental: Heterocyclic-mediated protection was next examined in two models of stroke: (i) oxygen-glucose deprivation (OGD) of cultured primary cerebrocortical neurons, and; (ii) in the mouse, middle cerebral artery occlusion (MCAO)/reperfusion.
Neurotoxicity studies were conducted as previously described. […] Cerebral cortex of mouse embryos at day 15 (E15) were freed from meninges and separated from olfactory bulb and hippocampus.
OGD of primary cerebrocortical neurons is a widely used cell culture model of stroke-related pathology. […] Caspase-3 activation plays a key role in hypoxia/ischemia-mediated injury. To gam insight into the mechanism of promethazine-mediated neuroprotection, it was evaluated whether this compound could inhibit OGD-mediated caspase-3 activation.

humans = conditions: human, in vivo; cited from earlier work
[4] = test system: 3-nitropropionic acid induced striatal lesions in Lewis rats; test: 3-nitropropionic acid striatal lesion model (Huntington's Disease); assay type: in vivo, rat
Experimental: Male Lewis 344 rats were administered 3-nitroproprionic acid by subcutaneous Alzet pumps. 3-Nitropropionic acid is a mitochondrial toxin which causes selective degeneration in the basal ganglia, mice, rats and primates. The lesions that it produces highly mimic the neuropathologic features associated with Huntington's Disease. The male Lewis rats weighed from about 340 to abut 370 grams and were obtained from Charles River Laboratories. At twelve weeks of age, the subcutaneous pumps were implanted. The concentration for each individual rat was calculated so that the animals received a dose of 38 mg/kg/d. Control animals were implanted with empty osmotic pumps. The 3-nitropropionic acid was administered for one week. Animals were treated with either phosphate buffered saline (PBS) promethazine in PBS at doses of 5 to 40 mg/kg/d. One week after the administration of the compound the rats were deeply anesthetized and transcardially perfused with 4% paraformaldehyde in PBS. Subsequently, 50 μm sections were obtained and stained for nissel substance. The lesion volumes were then calculated using stereologic procedures.

heart during ischemia = conditions: cited from earlier work

Q: For `NCCc1c[nH]cn1` [Histamine], which “swelling of liver mitochondria” value (liver mitochondria) is on record?
A: The value was “cause swelling”.

Q: With `CC(CN1c2ccccc2Sc2ccccc21)N(C)C` (stereo not shown) [Promethazine] as the compound, how does the “reduction in lesion size compared with saline-treated mice” value ([1]; 10 mg/kg i.p. 1 hr prior to ischemia and 12 hrs later, 24 hrs reperfusion, n=13, p<0.005) read?
A: The value was 53%.

Q: And the “reduction of maximal infarct size” value ([1]; 10 mg/kg i.p. twice)?
A: The value was 65%.

Q: What about the “reduction of variability of the injury” value ([1]; 10 mg/kg i.p. twice) of the same compound?
A: The value was 65%.

Q: And the neurologic score ([1]; 30 minute post-ischemia evaluation)?
A: The neurologic score was “not different”.

Q: What about the neurologic impairment score ([1]; 24 hours following MCAO, p<0.05) of the same compound?
A: The neurologic impairment score was “significantly improved”.

Q: And the “protection from MCA occlusion/reperfusion” value ([1]; total stroke volume P<0.005)?
A: Its value is “protects”.

Q: What about the PLA2 inhibition (phospholipase A2) of the same compound?
A: Its PLA2 inhibition is “does not appear to be a strong”.

Q: What about the “MPTP-induced reduction in striatal dopamine levels” value ([2]; 20 mg/kg) of the same compound?
A: The value was “significantly attenuated”.

Q: And the “depletion of striatal dopamine levels, dose response” value ([2]; 2.5, 5, and 40 mg/kg examined, optimal effects at 10 and 40 mg/kg)?
A: Its value is “dose-dependent neuroprotection”.

Q: And the “loss of dopaminergic neurons in the substantia nigra pars compacta” value ([2]; 50% cell loss following MPTP)?
A: The value was “significantly attenuated”.

Q: And the “striatal dopamine levels at base line” value ([2]; without MPTP)?
A: Its value is “no effect”.

Q: And the “OGD-mediated caspase-3 activation” value [3]?
A: Its value is “reduced”.

Q: And the “OGD-mediated neuronal death (LDH release)” value [3]?
A: The value was “inhibited”.

Q: What about the “OGD-mediated neuronal death (LDH release)” value ([3]; listed as promethazine) of the same compound?
A: Its value is “protection”.

Q: And the tolerability in humans (humans)?
A: Its tolerability in humans is “well-tolerated drug with few adverse side effects”.

Q: And the striatal lesion volume ([4]; 3-nitropropionic acid 38 mg/kg/d for one week, promethazine 5 to 40 mg/kg/d, untreated ~14 mm^3)?
A: The striatal lesion volume was roughly 4 mm^3.

Q: And the 3-nitropropionic induced lesions ([4]; increasing dosages)?
A: Its 3-nitropropionic induced lesions is “blocked”.

Q: Which “protection in the heart during ischemia” value (heart during ischemia) does the source give for `CCN(CC)CCCC(C)Nc1c2ccc(Cl)cc2nc2ccc(OC)cc12` (stereo not shown) [Quinacrine] here?
A: The value was “protective agent”.

Reference: patent US20080119517A1, “COMPOSITIONS AND METHODS FOR PROTECTING AGAINST MITOCHONDRIA COMPONENT-MEDIATED PATHOLOGY” (Cornell Research Foundation, Inc., priority 2003, published 2008)
